Laboratory results from ChEMBL document CHEMBL3217522, “New substituted aryl esters and aryl amides of 3,4-dihydro-2H-1,2,4-benzothiadiazine 1,1-dioxides as positive allosteric modulators of AMPA receptors” (Medchemcomm, 2011).

Key:
[1] = molecular target: T1, Glutamate receptor ionotropic, AMPA (Rattus norvegicus) (UniProt P19491+P19492+P19493+P19490); assay: Positive allosteric modulation of AMPA receptor in embryonic rat brain cells assessed as potentiation of membrane depolarization after 3 mins by fluorescence assay relative to AMPA; type: cell-based
[2] = molecular target: T1, Glutamate receptor ionotropic, AMPA (Rattus norvegicus); assay: Positive allosteric modulation of AMPA receptor in embryonic rat brain cells assessed as concentration required for 2-fold increase in AMPA-induced membrane depolarization after 3 mins by fluorescence assay; type: cell-based
[3] = molecular target: Glutamate receptor ionotropic, AMPA (Rattus norvegicus, UniProt P19490+P19491+P19492+P19493); assay: Positive allosteric modulation of AMPA receptor in embryonic rat brain cells assessed as potentiation of AMPA-induced membrane depolarization after 3 mins by fluorescence assay; type: cell-based
[4] = Stability of the compound in PBS at pH 1 at 1 mM after 24 hrs at 25 degC HPLC analysis; type: physicochemical; settings: buffer, pH 1, 24 h, 1000 µM
[5] = Stability of the compound in PBS at pH 7.4 at 1 mM after 24 hrs at 25 degC HPLC analysis; type: physicochemical; settings: buffer, pH 7.4, 24 h, 1000 µM

Row | SMILES | max activation [1] | Activity [2] | EC50 [3] | Stability [4] | Stability [5]
1 | CCCc1ccccc1OC(=O)c1ccc2c(c1)S(=O)(=O)NCN2CC | < 200% | > 100 µM | – | – | –
2 | CN1CNS(=O)(=O)c2cc(C(=O)Nc3ccccc3)ccc21 | < 200% | > 100 µM | – | – | –
3 | CCc1ccccc1OC(=O)c1ccc2c(c1)S(=O)(=O)NCN2CC | < 200% | > 100 µM | – | – | –
4 | CCN1CNS(=O)(=O)c2cc(C(=O)Oc3ccc(OC)cc3)ccc21 | < 200% | > 100 µM | – | – | –
5 | CCN1CNS(=O)(=O)c2cc(C(=O)Oc3cccc(OCc4ccccc4)c3)ccc21 | < 200% | > 100 µM | – | – | –
6 | CCN1CNS(=O)(=O)c2cc(C(=O)Oc3ccc(C)cc3)ccc21 | < 200% | > 100 µM | – | – | –
7 | CCN1CNS(=O)(=O)c2cc(C(=O)Oc3cccc(OC)c3)ccc21 | 200% | > 35 µM | – | – | –
8 | CCN1CNS(=O)(=O)c2cc(C(=O)Oc3ccccc3C)ccc21 | 330% | 3.48 µM | 3.91 µM | – | –
9 | CN1CNS(=O)(=O)c2cc(C(=O)N(C)c3ccccc3)ccc21 | < 200% | > 100 µM | – | – | –
10 | CCN1CNS(=O)(=O)c2cc(C(=O)Oc3ccccc3OCc3ccccc3)ccc21 | < 200% | > 100 µM | – | – | –
11 | CCN1CNS(=O)(=O)c2cc(C(=O)Oc3cccc(C)c3)ccc21 | < 200% | > 100 µM | – | – | –
12 | CCCc1ccc(OC(=O)c2ccc3c(c2)S(=O)(=O)NCN3CC)cc1 | < 200% | > 100 µM | – | – | –
13 | CCN1CNS(=O)(=O)c2cc(C(=O)OCc3ccccc3)ccc21 | < 200% | > 100 µM | – | – | –
14 | Cc1cccc(OC(=O)c2ccc3c(c2)S(=O)(=O)NCN3C)c1 | < 200% | > 100 µM | – | – | –
15 | CCN(C(=O)c1ccc2c(c1)S(=O)(=O)NCN2C)c1ccccc1 | < 200% | > 100 µM | – | – | –
16 | CCN1CNS(=O)(=O)c2cc(C(=O)Nc3ccccc3)ccc21 | < 200% | > 100 µM | – | – | –
17 | CCN1CNS(=O)(=O)c2cc(C(=O)OCCc3ccccc3)ccc21 | < 200% | > 100 µM | – | – | –

Further lines, results first:

Row | max activation [1] | Activity [2] | EC50 [3] | Stability [4] | Stability [5] | SMILES
18 | > 360% | 7.08 µM | – | – | – | CCOc1ccccc1OC(=O)c1ccc2c(c1)S(=O)(=O)NCN2C
19 | < 200% | > 100 µM | – | – | – | CCc1ccccc1OC(=O)c1ccc2c(c1)S(=O)(=O)NCN2C
20 | 550% | 3.66 µM | 3.65 µM | Stable | Stable | CN1CNS(=O)(=O)c2cc(C(=O)Oc3ccccc3)ccc21
21 | 410% | 0.94 µM | 1.72 µM | – | – | Cc1ccccc1OC(=O)c1ccc2c(c1)S(=O)(=O)NCN2C
22 | < 200% | > 100 µM | – | – | – | CN1CNS(=O)(=O)c2cc(C(=O)Oc3ccccc3OCc3ccccc3)ccc21
23 | < 200% | > 100 µM | – | – | – | COc1ccccc1OC(=O)c1ccc2c(c1)S(=O)(=O)NCN2
24 | 380% | 10.6 µM | – | – | – | CCN1CNS(=O)(=O)c2cc(C(=O)Oc3ccccc3OC)ccc21
25 | > 270% | 21.6 µM | – | – | – | CCOc1ccccc1OC(=O)c1ccc2c(c1)S(=O)(=O)NCN2CC
26 | 410% | 6.4 µM | 7.27 µM | – | – | COc1ccccc1OC(=O)c1ccc2c(c1)S(=O)(=O)NCN2C
